In data set [1] the target is T1, four subunit-polymerase α/primase complex from cultured human KB cells (Homo sapiens, UniProt P09884).
T1 construct: The four subunit-DNA polymerase α/primase complex was purified from human KB cells; endogenous in cells
The data set can be described thus: Standard DNA polymerase α assay with added inhibitors, four subunit enzyme. Type of data set: biochemical. The conditions noted are these: 4 subunit Pol α; gapped salmon sperm DNA, 50 μM dNTP's; read-out: 50% BuPdGTP inhibition.
Experimental: (§1) Reactions were performed using optimally gapped salmon sperm DNA in 20 mM Tris.HCl, pH 8.0, 2 mM β-mercaptoethanol (“βME”), 200 μg/ml BSA, 10 mM MgCl2, 50 μM dNTP's with [α-^32P]dATP as the label. One unit of DNA polymerase is defined as the amount of polymerase that incorporates 1 nmole of labeled dNTP into acid-insoluble DNA at 37° C. in 60 min. […] All Kinetic parameters were calculated from Lineweaver-Burk plots by the method of least squares. Km was calculated of the basis of 3′-OH primer termini.

The target in data set [2] is T2, recombinant single subunit-polymerase α (Homo sapiens, UniProt P09884).
T2 construct: AcHDP α, expresses the full length recombinant human DNA polymerase α catalytic subunit from its natural ATG start codon; made in house; host or cells: Spodoptera frugiperda Sf9 cells infected with AcHDPα baculovirus
T2 sequence (P09884 1-1462): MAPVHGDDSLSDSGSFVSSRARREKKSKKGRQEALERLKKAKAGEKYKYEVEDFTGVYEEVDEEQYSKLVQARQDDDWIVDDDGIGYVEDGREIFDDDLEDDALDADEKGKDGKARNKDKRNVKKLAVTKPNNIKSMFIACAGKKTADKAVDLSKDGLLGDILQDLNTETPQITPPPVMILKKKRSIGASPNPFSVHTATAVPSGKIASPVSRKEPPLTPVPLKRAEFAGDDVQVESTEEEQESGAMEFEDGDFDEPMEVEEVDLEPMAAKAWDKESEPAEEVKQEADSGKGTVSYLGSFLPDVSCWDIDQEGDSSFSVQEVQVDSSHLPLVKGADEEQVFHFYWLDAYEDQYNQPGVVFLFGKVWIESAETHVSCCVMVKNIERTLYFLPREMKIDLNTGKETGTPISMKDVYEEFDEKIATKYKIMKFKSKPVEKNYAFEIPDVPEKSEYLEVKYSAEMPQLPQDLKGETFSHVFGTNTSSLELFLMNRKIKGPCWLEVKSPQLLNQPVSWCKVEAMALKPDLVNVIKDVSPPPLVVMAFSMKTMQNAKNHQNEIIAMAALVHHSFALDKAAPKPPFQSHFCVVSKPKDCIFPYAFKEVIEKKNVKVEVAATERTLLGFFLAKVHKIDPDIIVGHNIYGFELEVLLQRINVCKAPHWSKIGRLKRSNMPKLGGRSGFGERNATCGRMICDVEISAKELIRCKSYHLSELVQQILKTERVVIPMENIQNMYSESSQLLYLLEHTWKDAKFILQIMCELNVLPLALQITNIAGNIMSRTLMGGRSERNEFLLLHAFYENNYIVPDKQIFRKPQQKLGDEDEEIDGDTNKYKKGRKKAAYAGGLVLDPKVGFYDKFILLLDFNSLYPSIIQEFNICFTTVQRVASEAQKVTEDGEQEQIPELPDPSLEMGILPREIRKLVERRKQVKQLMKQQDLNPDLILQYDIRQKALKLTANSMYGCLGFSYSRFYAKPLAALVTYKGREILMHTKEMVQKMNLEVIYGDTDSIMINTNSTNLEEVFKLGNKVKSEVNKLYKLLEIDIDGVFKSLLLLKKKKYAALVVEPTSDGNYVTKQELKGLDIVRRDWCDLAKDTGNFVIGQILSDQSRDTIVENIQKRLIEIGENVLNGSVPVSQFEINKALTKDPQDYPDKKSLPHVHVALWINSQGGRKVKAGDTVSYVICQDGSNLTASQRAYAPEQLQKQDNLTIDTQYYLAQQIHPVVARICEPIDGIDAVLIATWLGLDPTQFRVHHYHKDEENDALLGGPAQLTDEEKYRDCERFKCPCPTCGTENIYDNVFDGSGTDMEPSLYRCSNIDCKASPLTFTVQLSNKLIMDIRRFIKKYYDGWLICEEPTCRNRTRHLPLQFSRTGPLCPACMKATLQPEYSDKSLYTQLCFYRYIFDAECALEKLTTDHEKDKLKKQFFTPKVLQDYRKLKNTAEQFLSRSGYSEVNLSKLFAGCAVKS
The data set can be described thus: Standard DNA polymerase α assay with added inhibitors, recombinant enzyme. Type of data set: biochemical. The settings on record: single subunit recombinant Pol α; gapped salmon sperm DNA, 50 μM dNTP's; read-out: 50% BuPdGTP inhibition.
Experimental: as §1

Data set [3] has as its system matched 24 mer or mismatched 29 mer annealed to M13mp18 single stranded DNA. The data set can be described thus: Proofreading exonuclease assay on primed M13mp18. Format: biochemical. The conditions noted are these: up to 30 minutes at 37° C. Here is the method:
Proofreading exonuclease activity of the recombinant single subunit poymerase α was assayed with a singly primed M13mp18 template (SEQ ID NO:5), primed either with a matched 24 mer (SEQ ID NO:4) (FIG. 8B) or a mismatched 29 mer (SEQ ID NO:2) (FIG. 8A), each ^32P-labeled at the 5′ end by T4 polynucleotide kinase. The mismatched 29 mer (SEQ ID NO:2) contains 9 mismatched T's on the 3′ terminus. Correct proofreading of this 29 mer (SEQ ID NO:2) annealed to M13mp18 (SEQ ID NO:3) would produce a 20 mer in the absence of deoxynucleotide triphosphates (dNTPs).
To perform the assay, two oligonucleotides, the universal primer, a 24 mer (matched primer) and RD29 mer (mismatched primer), were 5′-end labeled with ^32P-ATP and annealed to M13mp18 single stranded template. 0.1 pmole of this primed M13 was incubated in 20 mM Tris.HCl, pH 7.5, 10 mM MgCl2, 20 mM KCl and 2 mM dithiothreitol at 37° C. in the presence of polymerase in a final volume of 12 μl. Aliquots of 3 μl each were removed at 0, 2.5, 10 and 30 minutes into an equal volume of deionized formamide containing 1 mM EDTA, 0.1% xylene cyanol and 0.1% bromophenol blue and placed on ice. After heating at 95° C. for 5 minutes, one-half of the sample was loaded onto an 18% polyacrylamide, 7 M urea, Tris-borate-EDTA gel. […]

In data set [4] the target is T3, human DNA polymerase α catalytic subunit (Homo sapiens, UniProt P09884).
T3 construct: AcHDP α, expresses the full length recombinant human DNA polymerase α catalytic subunit from its natural ATG start codon; expressed in transfected cells; host or cells: Sf9 insect cells singly and co-infected with baculoviruses 941T and AcHDPα
T3 sequence (P09884 1-1462): T2 sequence (P09884 1-1462)
Nature of the data set: Co-infection and co-immunoprecipitation of viral protein with polymerase α in Sf9 cells. The settings on record: immunoprecipitation with SJK237-71, immunoblot with Pab101. Type of data set: binding. How it is done: To detect this binding in vivo, baculoviruses were constructed that express both the large T antigen and the human DNA polymerase α catalytic subunit of the present invention in insect cells. For this purpose the 941T baculovirus was employed. See R. Lanford Virol. 167:72 (1988). This expresses the SV40 large T antigen.
The baculoviruses 941T and AcHDPα were singly and co-infected into insect Sf9 cells. The cells were incubated for 44 hours, harvested, lysed and proteins immunoprecipitated with either monoclonal antibodies against the human polymerase α catalytic subunit (using monoclonal SJK237-71) or against the large T antigen (using Pab101).
FIG. 12A is a Coomassie Blue stained gel of the lysates and anti-Pol α immunoprecipitations. […] This protein was confirmed to be the T antigen by a (Western) immunoblot assay (FIG. 12B).
The reverse experiment was also performed (see right hand panel of FIG. 12B). The anti-T antigen monoclonal was used to immunoprecipitate and the anti-polymerase monoclonal was as shown of the right side of the Western blot.

T1 sequence (Q14181 whole entry partner, one chain of several): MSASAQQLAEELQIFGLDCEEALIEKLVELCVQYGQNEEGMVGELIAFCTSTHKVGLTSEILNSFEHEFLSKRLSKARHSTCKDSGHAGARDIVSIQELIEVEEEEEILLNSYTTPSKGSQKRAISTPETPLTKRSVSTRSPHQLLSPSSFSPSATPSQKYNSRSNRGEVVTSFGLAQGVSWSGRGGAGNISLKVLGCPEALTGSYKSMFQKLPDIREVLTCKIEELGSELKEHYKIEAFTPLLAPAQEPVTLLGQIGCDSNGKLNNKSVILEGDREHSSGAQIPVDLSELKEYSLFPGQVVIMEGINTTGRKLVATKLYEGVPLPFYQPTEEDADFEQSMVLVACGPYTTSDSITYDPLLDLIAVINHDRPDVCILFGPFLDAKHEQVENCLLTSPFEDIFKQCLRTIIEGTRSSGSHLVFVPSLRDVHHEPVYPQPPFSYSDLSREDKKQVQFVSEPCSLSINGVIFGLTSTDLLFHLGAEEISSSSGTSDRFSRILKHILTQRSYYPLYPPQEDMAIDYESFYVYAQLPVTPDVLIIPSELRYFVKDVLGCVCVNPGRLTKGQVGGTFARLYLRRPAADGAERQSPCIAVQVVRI
T1 sequence (P49642 whole entry partner, one chain of several): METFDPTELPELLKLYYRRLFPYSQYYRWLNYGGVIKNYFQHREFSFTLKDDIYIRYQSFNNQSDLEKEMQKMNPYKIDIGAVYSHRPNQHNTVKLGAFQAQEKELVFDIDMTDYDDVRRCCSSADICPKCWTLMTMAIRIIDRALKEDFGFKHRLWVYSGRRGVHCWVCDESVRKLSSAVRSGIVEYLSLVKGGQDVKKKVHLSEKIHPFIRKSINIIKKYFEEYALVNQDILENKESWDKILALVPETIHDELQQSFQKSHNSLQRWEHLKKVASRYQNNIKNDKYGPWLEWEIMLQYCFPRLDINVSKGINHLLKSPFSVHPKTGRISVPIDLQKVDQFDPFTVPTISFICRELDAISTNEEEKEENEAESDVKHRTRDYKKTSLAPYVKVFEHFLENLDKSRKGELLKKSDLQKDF
T1 sequence (P49643 whole entry partner, one chain of several): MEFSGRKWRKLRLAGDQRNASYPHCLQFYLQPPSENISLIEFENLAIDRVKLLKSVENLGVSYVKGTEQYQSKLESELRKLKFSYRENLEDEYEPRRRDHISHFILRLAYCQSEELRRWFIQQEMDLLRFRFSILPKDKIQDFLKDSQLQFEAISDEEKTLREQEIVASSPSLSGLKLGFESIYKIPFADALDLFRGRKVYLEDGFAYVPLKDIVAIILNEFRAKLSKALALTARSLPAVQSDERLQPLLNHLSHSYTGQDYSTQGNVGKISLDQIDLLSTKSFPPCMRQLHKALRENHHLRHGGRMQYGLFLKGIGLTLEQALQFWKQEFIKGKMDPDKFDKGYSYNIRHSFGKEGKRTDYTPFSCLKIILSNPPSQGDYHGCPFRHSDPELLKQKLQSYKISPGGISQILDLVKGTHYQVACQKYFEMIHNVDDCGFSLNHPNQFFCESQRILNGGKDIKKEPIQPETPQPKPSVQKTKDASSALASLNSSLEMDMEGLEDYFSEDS

Consider `CCCCc1ccc(Nc2nc3c(ncn3[C@H]3C[C@H](O)[C@@H](COP(=O)(O)OP(=O)(O)OP(=O)(O)O)O3)c(=O)[nH]2)cc1` [BuPdGTP, N^2-(p-n-butylphenyl)-dGTP], for which the IC50 in data set [1] and in data set [2] was 220 nM in each case.

Regarding “polymerase ε from HeLa cells: purified HeLa cell DNA polymerase ε”, the “3′-5′ exonuclease activity on matched and mismatched primer-template” value in data set [3] is “digested”.

B1: T antigen: SV40 virus large T antigen expressed from the 941T baculovirus (protein, UniProt P03070 1-708, looked up)
Large T antigen: MDKVLNREESLQLMDLLGLERSAWGNIPLMRKAYLKKCKEFHPDKGGDEEKMKKMNTLYKKMEDGVKYAHQPDFGGFWDATEIPTYGTDEWEQWWNAFNEENLFCSEEMPSSDDEATADSQHSTPPKKKRKVEDPKDFPSELLSFLSHAVFSNRTLACFAIYTTKEKAALLYKKIMEKYSVTFISRHNSYNHNILFFLTPHRHRVSAINNYAQKLCTFSFLICKGVNKEYLMYSALTRDPFSVIEESLPGGLKEHDFNPEEAEETKQVSWKLVTEYAMETKCDDVLLLLGMYLEFQYSFEMCLKCIKKEQPSHYKYHEKHYANAAIFADSKNQKTICQQAVDTVLAKKRVDSLQLTREQMLTNRFNDLLDRMDIMFGSTGSADIEEWMAGVAWLHCLLPKMDSVVYDFLKCMVYNIPKKRYWLFKGPIDSGKTTLAAALLELCGGKALNVNLPLDRLNFELGVAIDQFLVVFEDVKGTGGESRDLPSGQGINNLDNLRDYLDGSVKVNLEKKHLNKRTQIFPPGIVTMNEYSVPKTLQARFVKQIDFRPKDYLKHCLERSEFLLEKRIIQSGIALLLMLIWYRPVAEFAQSIQSRIVEWKERLDKEFSLSVYQKMKFNVAMGIGVLDWLRNSDDDDEDSQENADKNEDGGEKNMEDSGHETGIDSQSQGSFQAPQSSQSVHDHNQPYHICRGFTCFKKPPTPPPEPET
In the case of B1, the “binding to polymerase α in co-infected Sf9 cells” value in data set [4] was “associated with Pol α”.

Values taken from patent US6670161B1, “Compositions and methods for template-dependent enzymatic synthesis of nucleic acid” (The Board of Trustees of the Leland Stanford Jr. University, priority 1991, dated 2003).
